Experimental data taken from patent US10669272B2, “Substituted naphthyridinone compounds useful as T cell activators” (BRISTOL-MYERS SQUIBB COMPANY, priority 2018, dated 2020).
Like-named read-outs stand apart in the source and are kept apart here.

Experiments:
human DGKα = target: T1, human DGKα (Homo sapiens, UniProt P23743); test: DGKα LIPGLO assay (extruded liposome substrate), in vitro DGK inhibition; assay type: biochemical; conditions: read-out: DGKa LIPGLO IC50
T1 construct: TVMV protease cleavage site (C); Hexa-His (C); made in house; host or cells: Sf9 insect cells (baculovirus, Bac-to-Bac)
T1 sequence (P23743 with tags, fused parts or gaps): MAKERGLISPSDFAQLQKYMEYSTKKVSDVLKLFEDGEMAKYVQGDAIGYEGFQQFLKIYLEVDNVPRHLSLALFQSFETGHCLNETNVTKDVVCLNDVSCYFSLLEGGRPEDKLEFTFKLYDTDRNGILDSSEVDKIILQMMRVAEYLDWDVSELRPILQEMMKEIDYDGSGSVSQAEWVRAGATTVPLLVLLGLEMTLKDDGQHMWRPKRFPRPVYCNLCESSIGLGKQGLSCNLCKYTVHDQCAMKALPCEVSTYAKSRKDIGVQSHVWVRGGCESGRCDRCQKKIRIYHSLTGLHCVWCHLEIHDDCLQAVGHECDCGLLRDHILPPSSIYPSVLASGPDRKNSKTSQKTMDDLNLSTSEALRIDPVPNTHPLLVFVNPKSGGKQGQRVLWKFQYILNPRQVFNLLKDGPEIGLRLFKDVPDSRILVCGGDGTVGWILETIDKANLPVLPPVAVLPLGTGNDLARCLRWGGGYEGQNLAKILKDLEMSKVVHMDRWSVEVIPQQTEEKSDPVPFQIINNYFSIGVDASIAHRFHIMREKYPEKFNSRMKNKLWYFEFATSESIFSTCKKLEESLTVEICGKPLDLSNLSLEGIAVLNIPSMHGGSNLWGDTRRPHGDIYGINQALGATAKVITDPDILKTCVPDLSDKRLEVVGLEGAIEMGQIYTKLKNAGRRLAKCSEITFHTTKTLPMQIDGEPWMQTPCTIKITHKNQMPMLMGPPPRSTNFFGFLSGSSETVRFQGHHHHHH

human DGKζ = target: T2, human DGKζ (Homo sapiens, UniProt Q13574); test: DGKζ LIPGLO assay (extruded liposome substrate), in vitro DGK inhibition; assay type: biochemical; conditions: read-out: DGKz LIPGLO IC50
T2 construct: TVMV protease cleavage site (C); Hexa-His (C); made in house; host or cells: Sf9 insect cells (baculovirus, Bac-to-Bac)
T2 sequence (Q13574 with tags, fused parts or gaps isoform Q13574-4): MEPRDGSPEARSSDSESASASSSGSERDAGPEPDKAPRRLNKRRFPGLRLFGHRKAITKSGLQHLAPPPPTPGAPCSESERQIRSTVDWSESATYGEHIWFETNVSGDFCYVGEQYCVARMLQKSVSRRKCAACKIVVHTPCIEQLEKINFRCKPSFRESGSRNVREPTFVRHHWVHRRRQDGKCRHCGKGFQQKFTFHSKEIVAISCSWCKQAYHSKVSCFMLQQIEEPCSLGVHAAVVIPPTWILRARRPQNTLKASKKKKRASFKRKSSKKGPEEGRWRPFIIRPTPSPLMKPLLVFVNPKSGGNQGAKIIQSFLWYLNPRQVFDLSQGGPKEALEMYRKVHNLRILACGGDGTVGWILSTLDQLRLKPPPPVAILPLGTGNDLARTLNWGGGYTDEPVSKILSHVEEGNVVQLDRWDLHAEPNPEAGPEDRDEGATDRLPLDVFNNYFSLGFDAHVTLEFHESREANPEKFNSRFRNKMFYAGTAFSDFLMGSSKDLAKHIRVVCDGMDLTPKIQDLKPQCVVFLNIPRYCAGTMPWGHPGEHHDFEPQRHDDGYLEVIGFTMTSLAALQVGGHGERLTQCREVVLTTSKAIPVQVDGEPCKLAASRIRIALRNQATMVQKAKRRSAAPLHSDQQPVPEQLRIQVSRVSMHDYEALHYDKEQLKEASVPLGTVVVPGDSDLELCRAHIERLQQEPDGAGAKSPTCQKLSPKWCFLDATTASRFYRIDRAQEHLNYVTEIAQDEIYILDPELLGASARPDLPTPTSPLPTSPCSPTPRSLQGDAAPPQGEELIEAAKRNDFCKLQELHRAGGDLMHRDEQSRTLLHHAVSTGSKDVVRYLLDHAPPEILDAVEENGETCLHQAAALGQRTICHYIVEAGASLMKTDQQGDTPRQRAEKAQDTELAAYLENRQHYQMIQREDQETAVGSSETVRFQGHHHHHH

Human venous whole blood = test: Human whole blood IFN-γ assay; assay type: cell-based; conditions: human whole blood, read-out: INFg Whole Blood Normalized Agonist EC50;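 further: blood from healthy donors exposed to compound for 1 h before stimulation with anti-CD3 and anti-CD28 at 1 µg/mL each, IFN-γ quantified in supernatant by AlphaLISA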
Description: Human Whole Blood IFN-γ Assay
Human venous whole blood (22.5 μL per well), obtained from healthy donors, was pre-treated with compounds for one hour at 37° C. in a humidified 95% air/5% CO2 incubator. The blood was stimulated with 2.5 μL anti-human CD3 and anti-CD28 mAb at a final concentration of 1 μg/mL each for 24 hours at 37° C. IFN-γ in the supernatants was measured using AlphLISA kit (Cat # AL217).

[1] = Homo sapiens, 24 h, anti-CD3 plus anti-CD28, 24 hours, 3 μM reference compound = 100% activation
[2] = Homo sapiens, 24 h, normalized to 3 μM reference compound with anti-CD3 plus anti-CD28 as 100% activation
[3] = normalized to 3 μM reference compound with anti-CD3 plus anti-CD28 as 100% activation
[4] = anti-CD3 plus anti-CD28, 24 hours, 3 μM reference compound = 100% activation

Structure (SMILES) | IC50 (human DGKα; DGKα liposome (LIPGLO) assay) [nM] | IC50 (human DGKζ; DGKζ liposome (LIPGLO) assay) [nM] | EC50 (Human venous whole blood; [1]) [nM] | IC50 (human DGKα; liposome (LIPGLO) assay) [nM] | IC50 (human DGKζ; liposome (LIPGLO) assay) [nM] | EC50 (Human venous whole blood; [2]) [nM] | EC50 (Human venous whole blood; [3]) [nM] | EC50 (Human venous whole blood; [4]) [nM]
CC(c1ccc(Br)cc1)N1CCN(c2c(C#N)c(=O)n(C)c3ccc(C#N)nc23)C[C@H]1C (single isomer, unassigned) [Example 974] | 1100 | 7600 | 20000 | – | – | – | – | –
CCn1cc(F)c2c(CN3C[C@H](C)N(c4cc(=O)n(C)c5ccc(C#N)nc45)C[C@H]3C)cccc21 [Example 596] | – | – | – | 8900 | 580 | 15000 | – | –
CC[C@@H]1CN(c2cc(=O)n(C)c3ccc(C#N)nc23)[C@@H](C)CN1C(c1ccc(F)cc1)c1ccnc(C)n1 (single isomer, unassigned) [Example 418] | – | – | – | 1500 | 130 | – | 280 | –
C[C@@H]1CN(c2c(C#N)c(=O)n(C)c3ccc(C#N)nc23)[C@@H](C)CN1C(c1ccc(Cl)cc1)c1ccc(F)cn1 (single isomer, unassigned) [Example 830] | 1500 | 9600 | – | – | – | – | – | 1900
C[C@@H]1CN(c2c(C#N)c(=O)n(C)c3ccc(C#N)nc23)CCN1Cc1ccccc1C#N [Example 1009] | 1800 | 6700 | 20000 | – | – | – | – | –
C[C@@H]1CN(c2c(C#N)c(=O)n(C)c3ccc(C#N)nc23)CCN1C(c1ccc(Cl)cc1)c1ccc2c(c1)OC(F)(F)O2 (single isomer, unassigned) [Example 942] | 26000 | 2800 | – | – | – | – | – | 20000
C[C@@H]1CN(c2c(C#N)c(=O)n(C)c3ccc(C#N)nc23)CCN1Cc1cccc(-c2ccccc2)c1 [Example 1004] | 3900 | 11000 | 3500 | – | – | – | – | –
CC[C@H]1CN(C(c2ccc(F)cc2)c2ccc(Cl)cc2)[C@H](C)CN1c1cc(=O)n(C)c2ccc(C#N)nc12 (stereo partly drawn) [Example 1128] | – | – | – | 730 | 940 | – | 550 | –
CCc1ccc(C(c2ccc(F)cc2)N2C[C@H](C)N(c3c(C#N)c(=O)n(C)c4ccc(C#N)nc34)C[C@H]2C)cc1 (single isomer, unassigned) [Example 811] | 9300 | 2600 | 2100 | – | – | – | – | –
Cc1cccc(C(c2ccc(F)cc2)N2C[C@H](C)N(c3c(C#N)c(=O)n(C)c4ccc(C#N)nc34)C[C@H]2C)n1 (stereo partly drawn) [Example 816] | 2600 | 3100 | – | – | – | – | – | 1100
Cc1ccc(C(c2cccc(F)c2)N2C[C@H](C)N(c3cc(=O)n(C)c4ccc(C#N)nc34)C[C@H]2C)cn1 (single isomer, unassigned) [Example 390] | – | – | – | 17000 | 7400 | – | 2600 | –
C[C@@H]1CN(c2cc(=O)n(C)c3ccc(C#N)nc23)[C@@H](C)CN1Cc1coc(-c2cccs2)n1 [Example 1434] | – | – | – | 2100 | 960 | 21000 | – | –
CC[C@@H]1CN(c2cc(=O)n(C)c3ccc(C#N)nc23)[C@@H](C)CN1C(c1ccc(F)cc1)c1ccc(C(F)(F)F)cn1 (single isomer, unassigned) [Example 1107] | – | – | – | 65 | 130 | – | 77 | –
Cc1ccc(C(c2ccc(F)cc2)N2C[C@H](C)N(c3c(C#N)c(=O)n(C)c4ccc(C#N)nc34)C[C@H]2C)cc1 (stereo partly drawn) [Example 817] | 22000 | 8600 | – | – | – | – | – | 1100
CC[C@@H]1CN(c2cc(=O)n(C)c3ccc(C#N)nc23)[C@@H](C)CN1C(C)c1ccc(C(F)(F)F)cc1F (single isomer, unassigned) [Example 1085] | – | – | – | 360 | 32 | – | 160 | –
C[C@@H]1CN(c2c(C#N)c(=O)n(C)c3ccc(C#N)nc23)CCN1C(c1ccc(F)cc1)c1ccccc1F (stereo partly drawn) [Example 883] | 1500 | 840 | – | – | – | – | – | 830
COCc1ccc(C(C)N2C[C@H](C)N(c3cc(=O)n(C)c4ccc(C#N)nc34)C[C@H]2C)cc1 (stereo partly drawn) [Example 1265] | – | – | – | 49 | 48 | – | 120 | –

Structure (SMILES) | IC50 (human DGKα; DGKα liposome (LIPGLO) assay) [nM] | IC50 (human DGKζ; DGKζ liposome (LIPGLO) assay) [nM] | EC50 (Human venous whole blood; [1]) [nM] | IC50 (human DGKα; liposome (LIPGLO) assay) [nM] | IC50 (human DGKζ; liposome (LIPGLO) assay) [nM] | EC50 (Human venous whole blood; [2]) [nM] | EC50 (Human venous whole blood; [3]) [nM] | EC50 (Human venous whole blood; [4]) [nM]
CCC(c1ccc(OCC2CC2)cc1)N1C[C@H](C)N(c2cc(=O)n(C)c3ccc(C#N)nc23)C[C@H]1C (single isomer, unassigned) [Example 1440] | – | – | – | 1600 | 1100 | 2100 | – | –
CC(c1ccccc1C(F)(F)F)N1CCN(c2c(C#N)c(=O)n(C)c3ccc(C#N)nc23)C[C@H]1C (single isomer, unassigned) [Example 968] | > 250000 | > 250000 | – | – | – | – | – | 20000
Cc1ccc(C(c2ccc(C#N)cc2)N2C[C@H](C)N(c3cc(=O)n(C)c4ccc(C#N)nc34)C[C@H]2C)nc1 (stereo partly drawn) [Example 453, 8-((2S,5R)-4-((4-cyanophenyl)(5-methylpyridin-2-yl)methyl)-2,5-dimethylpiperazin-1-yl)-5-methyl-6-oxo-5,6-dihydro-1,5-naphthyridine-2-carbonitrile] | – | – | – | 310 | 1000 | – | 2800 | –
CC[C@H]1CN(C(C)c2ccc(F)cc2)[C@H](CC)CN1c1cc(=O)n(C)c2ccc(C#N)nc12 (single isomer, unassigned) [Example 1050] | – | – | – | 510 | 900 | – | 4400 | –
C[C@@H]1CN(c2c(C#N)c(=O)n(C)c3ccc(C#N)nc23)[C@@H](C)CN1C(c1ccc(F)cc1)c1cncn1C (stereo partly drawn) [Example 849] | > 250000 | 130000 | – | – | – | – | – | 20000
CCC(c1ccc(OC(C)C)cc1)N1C[C@H](C)N(c2cc(=O)n(C)c3ccc(C#N)nc23)C[C@H]1CC (single isomer, unassigned) [Example 1447] | – | – | – | 280 | 24 | – | 50 | –
CC[C@H]1CN(C(C)c2ccc(C(F)(F)F)cc2)[C@H](C)CN1c1cc(=O)n(C)c2ccc(C#N)nc12 (single isomer, unassigned) [Example 1143] | – | – | – | 1400 | 13000 | – | 4000 | –
C[C@@H]1CN(c2cc(=O)n(C)c3ccc(C#N)nc23)[C@@H](C)CN1Cc1nnnn1C1CC1 [Example 1423] | – | – | – | 50000 | 44000 | 20000 | – | –
CCc1ccccc1C(c1ccc(F)cc1)N1C[C@H](C)N(c2c(C#N)c(=O)n(C)c3ccc(C#N)nc23)C[C@H]1C (single isomer, unassigned) [Example 809] | 140000 | 2300 | 20000 | – | – | – | – | –
Cc1ccc(C(c2cccc(Cl)c2)N2CCN(c3c(C#N)c(=O)n(C)c4ccc(C#N)nc34)C[C@H]2C)nc1 (single isomer, unassigned) [Example 929] | 7700 | 1100 | – | – | – | – | – | 1300
C[C@@H]1CN(c2c(C#N)c(=O)n(C)c3ccc(C#N)nc23)CCN1C(c1ccc(F)cc1)c1nccs1 (single isomer, unassigned) [Example 1025] | – | – | – | 1200 | 19000 | – | 2000 | –
CC[C@H]1CN(C(C)c2ccc(OC(F)(F)F)cc2)[C@H](COC)CN1c1cc(=O)n(C)c2ccc(C#N)nc12 (single isomer, unassigned) [Example 1409] | – | – | – | 9200 | 810 | 2300 | – | –
C[C@@H]1CN(c2cc(=O)n(C)c3ccc(C#N)nc23)[C@@H](C)CN1C(c1ccc(F)cc1)c1ncco1 (stereo partly drawn) [Example 717] | – | – | – | 220 | 8100 | 1600 | – | –
COc1cc(F)c(C(C)N2C[C@H](C)N(c3cc(=O)n(C)c4ccc(C#N)nc34)C[C@H]2C)cc1OC (single isomer, unassigned) [Example 1247] | – | – | – | 24000 | 7400 | – | 20000 | –
C[C@@H]1CN(c2cc(=O)n(C)c3ccc(C#N)nc23)[C@@H](C)CN1C(c1ccc(F)cc1)c1ccc(C(F)(F)F)cn1 (single isomer, unassigned) [Example 681] | – | – | – | 100 | 350 | – | 270 | –
Cc1ccc(C(c2cncc(F)c2)N2C[C@H](C)N(c3cc(=O)n(C)c4ccc(C#N)nc34)C[C@H]2C)cc1 (single isomer, unassigned) [Example 416] | – | – | – | 21000 | 14000 | – | 5200 | –
